Where a name gives a salt, the structure may show the parent alone.
Columns and labels:
MCMV [1] = system: MCMV
Protocol: For infection experiments BALB/c mice, 4–6 weeks old, were purchased from Harlan Laboratories (Indianapolis, Indiana). The Animal Care and Use Committee of Johns Hopkins University approved the experimental procedures. […] Mice were infected intraperitoneally with 10^6 PFU/mice (0.1 mL in 0.8% saline). Control mice received 0.1 ml of saline intraperitoneally. […] GCV was administered intraperitoneally twice daily. […] Control and infected mice received equivalent volumes of saline. Mice were sacrificed at day 14 after infection. Blood samples were collected by cardiac puncture. Salivary glands and liver were harvested and stored at -80°C. Organs were homogenized in DMEM with 4% FBS at a final concentration of 100 mg/mL. Two million MEFs were seeded into 24-well plates. From each sample, 5% of the salivary gland homogenate or 10% of the liver homogenate was used for infection of MEFs in triplicates. Plaques were counted after three days. Whole blood viral load was measured at day 14 by real-time PCR of the glycoprotein B (gB) gene. DNA was extracted using the DNA blood mini kit (Qiagen, Georgetown, MD).

RPS14-MDM2 = biological target: T1, RPS14-MDM2 (Homo sapiens, UniProt P62263); experiment: Co-immunoprecipitation RPS14-MDM2; format: cell-based; details: emetine 75 nM, infected high-density cells, 24 hpi, MG132
T1 construct: endogenous in cells; host or cells: HFFs (ATCC CRL-2088), infected with HCMV Towne, MG132-treated
Protocol: Non-infected, infected or emetine-treated HFFs were treated with MG132 (10 μM) for 12h. Cells were harvested after 24 hpi and lysed with IP buffer containing 150 mM NaCl, 50mM Tris pH 7.5, 2 mM EDTA, 0.5% TritonX-100 and 0.5% NP-40-40. 1 mg of lysate was precleared with bead slurry for 30 min. The precleared lysates were incubated with anti-MDM2 (2 μg) antibody overnight. The antibody complexes were isolated using protein A/G beads (Santa Cruz), washed three times with 50% IP buffer. The immunoprecipitate-protein A/G beads were boiled in SDS sample buffer, and the supernatant was analyzed on SDS-PAGE gels after immunoblotting as described previously. 1% of the cell lysate used for IP was loaded on gels as ‘Input’. Confirmatory reverse IPs were performed as described in each experiment. Isotype control antibodies included: rabbit IgG polyclonal, mouse IgG2a kappa and mouse IgG2b kappa monoclonal (Abcam). Mouse monoclonal RPS19 antibody (Abcam) served as an additional negative control for the IPs. Densitometry analysis was performed to determine relative ratio of immunoprecipitated protein to its input level.

MCMV [2] = experiment: MCMV plaque reduction assay in MEFs; format: cell-based, mouse CMV
Protocol: The pp28-luciferase HCMV Towne and a GCV-resistant pp28-luciferase were used. The recombinant viruses express luciferase under the control of the late CMV gene promoter, pp28. Luciferase expression is activated 48–72 hours post infection (hpi). The recombinant viruses provide a highly-sensitive reporter system which correlates with plaque reduction assay. The Towne HCMV strain (ATCC VR-977) was used for plaque reduction, quantitative reverse transcriptase PCR (qRT-PCR), and immunoprecipitation assays. Human herpes virus strains were: luciferase HSV1- KOS/Dlux/oriS [52] and clinical isolates of HSV2. The clinical isolates were provided by the clinical microbiology laboratory with no identifiers that can link to a specific subject. Murid Herpesvirus (MCMV: ATCC VR-1399) was used for infection of mouse embryonic fibroblasts (MEFs) and mice.
Human Foreskin Fibroblasts (HFFs) passage 12–16 (ATCC, CRL-2088) and mouse embryonic fibroblasts (MEFs) passage 9–14 (ATCC, CRL-1658) were grown in Dulbecco's Modified Eagle Medium (DMEM) containing 10% fetal bovine serum (FBS) (Gibco, Carlsbad, CA) in a 5% CO2 incubator at 37°C. Infection with HCMV or HSV was performed in HFFs, and infection with mouse CMV was performed in MEFs. For HCMV, cells were seeded in either a 96-well plate or 100 mm culture plates (Corning Costar, Sigma Aldrich) at 0.5 or 2 million cells /plate. Following 90 minute adsorption, media was removed and cells were washed with PBS. Media containing 4% FBS and compounds were added to each well. Infected treated HFFs were collected at 72 hpi and lysates were assayed for luciferase activity using a luciferase assay kit (Promega, Madison, WI) on GloMax-Multi+ Detection System (Promega). In second cycle assays, supernatants were collected from all conditions of the first cycle at 96 hpi and used for infection of fresh HFFs in 96-well plates. Luciferase activity was measured 72 h following second cycle infection. […] After incubation at 37°C for 10 days (for HCMV), 3 days for MCMV or 2 days (for HSV), the overlay was removed and plaques were counted after crystal violet staining.

[3] = Cell viability, MTT-based colorimetric assay; details: human, non-infected human foreskin fibroblasts (HFFs), cell viability after 72 h
Protocol: Cell viability was determined by an MTT-based colorimetric assay (Sigma-Aldrich), and performed at the same time points as the antiviral assay.

HCMV = experiment: Virus entry, pp65 immunofluorescence assay; format: cell-based, Human Cytomegalovirus; details: emetine 75 nM, GCV 10 μM, CpG 2006 10 μM, added 24 h prior to infection
HCMV Towne = experiment: Add-on and removal studies, plaque titration; format: cell-based, Human Cytomegalovirus; details: supernatants at 72 hpi
Protocol: For time-of-removal studies, medium containing the compounds was removed at 0, 6, 12, 24, 36 and 48 hpi, cells were washed three times with PBS, and drug-free medium was added. Culture supernatants were collected at 72 hpi and titration of infectious virus was performed after 14 days by plaque assay.

[4] = all treatment regimens (0.1 or 1 mg/kg oral, from 24 or 72 hpi), day 14

Q: Which results are given for `CC[C@H]1CN2CCc3cc(OC)c(OC)cc3[C@@H]2C[C@@H]1C[C@H]1NCCc2cc(OC)c(OC)cc21` [emetine, emetine dihydrochloride hydrate]?
A: decrease in MCMV DNA copy number in blood compared to infected control (MCMV [1]; 0.1 or 1 mg/kg orally every three days from 24 h or 72 h after infection, day 14): 2 to 4 log10; reduction of viral PFUs in liver (MCMV [1]; [4]): 3–6 fold; reduction of viral PFUs in salivary gland (MCMV [1]; [4]): 4–6 fold; tolerability in mouse CMV model (MCMV [1]; mouse): well-tolerated; interaction between RPS14 and MDM2 (RPS14-MDM2): strongly induced the interaction between RPS14 and MDM2; MCMV plaque reduction and cell density (MCMV [2]; emetine 75 nM, 0.5 and 2 million cells/plate): cell-density dependent response; EC50 (MCMV [2]; in Mus musculus, MCMV, plaque assay, read-out: Mean EC50 ± SD): 0.036 µM; CC50 at 72 h [3]: 8 ± 0.56 µM; inhibition of viral entry (HCMV): neither emetine nor GCV inhibited viral entry; anti-HCMV activity when added after infection (add-on) (HCMV Towne; addition after 12 h): loss of activity against HCMV; time compound is required to fully inhibit HCMV (removal assay) (HCMV Towne; plaque assay): at least 24 h

Reference: paper PMC4919066 (PLoS Pathogens, 2016)
